# Assay results: ChEMBL document CHEMBL3763148, “Synthesis, structure elucidation, DNA-PK and PI3K and anti-cancer activity of 8- and 6-aryl-substituted-1-3-benzoxazines” (Eur J Med Chem, 2016)
# Tests used:
# [1] = target: DNA-dependent protein kinase catalytic subunit (Homo sapiens, UniProt P78527); assay: Inhibition of human DNA-PK using EPPLSQEAFADLWKK as substrate by HTRF assay
# [2] = Cytotoxicity against human HL-60(TB) cells assessed as cell growth inhibition at 10 uM after 48 hrs by SRB assay relative to control; assay type: functional; details: HL-60, 48 h, read-out: GI
# [3] = Cytotoxicity against human RPMI8226 cells assessed as cell growth inhibition at 10 uM after 48 hrs by SRB assay relative to control; assay type: functional; details: RPMI-8226, 48 h, read-out: GI
# [4] = system: SR; assay: Cytotoxicity against human SR cells assessed as cell growth inhibition at 10 uM after 48 hrs by SRB assay relative to control; assay type: functional; details: read-out: GI
# [5] = system: EKVX; assay: Cytotoxicity against human EKVX cells assessed as cell growth inhibition at 10 uM after 48 hrs by SRB assay relative to control; assay type: functional; details: read-out: GI
# [6] = Cytotoxicity against human HOP62 cells assessed as cell growth inhibition at 10 uM after 48 hrs by SRB assay relative to control; assay type: functional; details: HOP-62, 48 h, read-out: GI
# [7] = Cytotoxicity against human HOP92 cells assessed as cell growth inhibition at 10 uM after 48 hrs by SRB assay relative to control; assay type: functional; details: HOP-92, 48 h, read-out: GI
# [8] = system: NCI-H226; assay: Cytotoxicity against human NCI-H226 cells assessed as cell growth inhibition at 10 uM after 48 hrs by SRB assay relative to control; assay type: functional; details: NCI-H226, 48 h, read-out: GI
# [9] = system: NCI-H322M; assay: Cytotoxicity against human NCI-H322M cells assessed as cell growth inhibition at 10 uM after 48 hrs by SRB assay relative to control; assay type: functional; details: read-out: GI
# [10] = system: NCI-H460; assay: Cytotoxicity against human NCI-H460 cells assessed as cell growth inhibition at 10 uM after 48 hrs by SRB assay relative to control; assay type: functional; details: NCI-H460, 48 h, read-out: GI
# [11] = Cytotoxicity against human HCT15 cells assessed as cell growth inhibition at 10 uM after 48 hrs by SRB assay relative to control; assay type: functional; details: HCT-15, 48 h, read-out: GI
# [12] = Cytotoxicity against human SF268 cells assessed as cell growth inhibition at 10 uM after 48 hrs by SRB assay relative to control; assay type: functional; details: SF-268, 48 h, read-out: GI
# [13] = Cytotoxicity against human SF295 cells assessed as cell growth inhibition at 10 uM after 48 hrs by SRB assay relative to control; assay type: functional; details: SF-295, 48 h, read-out: GI
# [14] = Cytotoxicity against human SF539 cells assessed as cell growth inhibition at 10 uM after 48 hrs by SRB assay relative to control; assay type: functional; details: SF-539, 48 h, read-out: GI
# [15] = Cytotoxicity against human SNB19 cells assessed as cell growth inhibition at 10 uM after 48 hrs by SRB assay relative to control; assay type: functional; details: SNB-19, 48 h, read-out: GI
# [16] = system: U-251; assay: Cytotoxicity against human U251 cells assessed as cell growth inhibition at 10 uM after 48 hrs by SRB assay relative to control; assay type: functional; details: U-251, 48 h, read-out: GI
# [17] = system: MDA-MB-435; assay: Cytotoxicity against human MDA-MB-435 cells assessed as cell growth inhibition at 10 uM after 48 hrs by SRB assay relative to control; assay type: functional; details: MDA-MB-435, 48 h, read-out: GI
# [18] = system: SK-MEL-2; assay: Cytotoxicity against human SK-MEL-2 cells assessed as cell growth inhibition at 10 uM after 48 hrs by SRB assay relative to control; assay type: functional; details: SK-MEL-2, 48 h, read-out: GI
# [19] = system: SK-MEL-28; assay: Cytotoxicity against human SK-MEL-28 cells assessed as cell growth inhibition at 10 uM after 48 hrs by SRB assay relative to control; assay type: functional; details: SK-MEL-28, 48 h, read-out: GI
# [20] = Cytotoxicity against human IGROV1 cells assessed as cell growth inhibition at 10 uM after 48 hrs by SRB assay relative to control; assay type: functional; details: IGROV-1, 48 h, read-out: GI
# [21] = Cytotoxicity against human OVCAR3 cells assessed as cell growth inhibition at 10 uM after 48 hrs by SRB assay relative to control; assay type: functional; details: OVCAR-3, 48 h, read-out: GI
# [22] = Cytotoxicity against human OVCAR5 cells assessed as cell growth inhibition at 10 uM after 48 hrs by SRB assay relative to control; assay type: functional; details: OVCAR-5, 48 h, read-out: GI
# [23] = Cytotoxicity against human NCI-ADR-RES cells assessed as cell growth inhibition at 10 uM after 48 hrs by SRB assay relative to control; assay type: functional; details: read-out: GI
# [24] = system: 786-0; assay: Cytotoxicity against human 786-0 cells assessed as cell growth inhibition at 10 uM after 48 hrs by SRB assay relative to control; assay type: functional; details: 786-0, 48 h, read-out: GI
# [25] = Cytotoxicity against human RXF393 cells assessed as cell growth inhibition at 10 uM after 48 hrs by SRB assay relative to control; assay type: functional; details: RXF 393, 48 h, read-out: GI
# [26] = Cytotoxicity against human DU145 cells assessed as cell growth inhibition at 10 uM after 48 hrs by SRB assay relative to control; assay type: functional; details: DU-145, 48 h, read-out: GI
# [27] = system: MCF7; assay: Cytotoxicity against human MCF7 cells assessed as cell growth inhibition at 10 uM after 48 hrs by SRB assay relative to control; assay type: functional; details: MCF7, 48 h, read-out: GI
# [28] = system: MDA-MB-231; assay: Cytotoxicity against human MDA-MB-231 cells assessed as cell growth inhibition at 10 uM after 48 hrs by SRB assay relative to control; assay type: functional; details: MDA-MB-231, 48 h, read-out: GI
# DNA-dependent protein kinase catalytic subunit, sequence (P78527 whole entry): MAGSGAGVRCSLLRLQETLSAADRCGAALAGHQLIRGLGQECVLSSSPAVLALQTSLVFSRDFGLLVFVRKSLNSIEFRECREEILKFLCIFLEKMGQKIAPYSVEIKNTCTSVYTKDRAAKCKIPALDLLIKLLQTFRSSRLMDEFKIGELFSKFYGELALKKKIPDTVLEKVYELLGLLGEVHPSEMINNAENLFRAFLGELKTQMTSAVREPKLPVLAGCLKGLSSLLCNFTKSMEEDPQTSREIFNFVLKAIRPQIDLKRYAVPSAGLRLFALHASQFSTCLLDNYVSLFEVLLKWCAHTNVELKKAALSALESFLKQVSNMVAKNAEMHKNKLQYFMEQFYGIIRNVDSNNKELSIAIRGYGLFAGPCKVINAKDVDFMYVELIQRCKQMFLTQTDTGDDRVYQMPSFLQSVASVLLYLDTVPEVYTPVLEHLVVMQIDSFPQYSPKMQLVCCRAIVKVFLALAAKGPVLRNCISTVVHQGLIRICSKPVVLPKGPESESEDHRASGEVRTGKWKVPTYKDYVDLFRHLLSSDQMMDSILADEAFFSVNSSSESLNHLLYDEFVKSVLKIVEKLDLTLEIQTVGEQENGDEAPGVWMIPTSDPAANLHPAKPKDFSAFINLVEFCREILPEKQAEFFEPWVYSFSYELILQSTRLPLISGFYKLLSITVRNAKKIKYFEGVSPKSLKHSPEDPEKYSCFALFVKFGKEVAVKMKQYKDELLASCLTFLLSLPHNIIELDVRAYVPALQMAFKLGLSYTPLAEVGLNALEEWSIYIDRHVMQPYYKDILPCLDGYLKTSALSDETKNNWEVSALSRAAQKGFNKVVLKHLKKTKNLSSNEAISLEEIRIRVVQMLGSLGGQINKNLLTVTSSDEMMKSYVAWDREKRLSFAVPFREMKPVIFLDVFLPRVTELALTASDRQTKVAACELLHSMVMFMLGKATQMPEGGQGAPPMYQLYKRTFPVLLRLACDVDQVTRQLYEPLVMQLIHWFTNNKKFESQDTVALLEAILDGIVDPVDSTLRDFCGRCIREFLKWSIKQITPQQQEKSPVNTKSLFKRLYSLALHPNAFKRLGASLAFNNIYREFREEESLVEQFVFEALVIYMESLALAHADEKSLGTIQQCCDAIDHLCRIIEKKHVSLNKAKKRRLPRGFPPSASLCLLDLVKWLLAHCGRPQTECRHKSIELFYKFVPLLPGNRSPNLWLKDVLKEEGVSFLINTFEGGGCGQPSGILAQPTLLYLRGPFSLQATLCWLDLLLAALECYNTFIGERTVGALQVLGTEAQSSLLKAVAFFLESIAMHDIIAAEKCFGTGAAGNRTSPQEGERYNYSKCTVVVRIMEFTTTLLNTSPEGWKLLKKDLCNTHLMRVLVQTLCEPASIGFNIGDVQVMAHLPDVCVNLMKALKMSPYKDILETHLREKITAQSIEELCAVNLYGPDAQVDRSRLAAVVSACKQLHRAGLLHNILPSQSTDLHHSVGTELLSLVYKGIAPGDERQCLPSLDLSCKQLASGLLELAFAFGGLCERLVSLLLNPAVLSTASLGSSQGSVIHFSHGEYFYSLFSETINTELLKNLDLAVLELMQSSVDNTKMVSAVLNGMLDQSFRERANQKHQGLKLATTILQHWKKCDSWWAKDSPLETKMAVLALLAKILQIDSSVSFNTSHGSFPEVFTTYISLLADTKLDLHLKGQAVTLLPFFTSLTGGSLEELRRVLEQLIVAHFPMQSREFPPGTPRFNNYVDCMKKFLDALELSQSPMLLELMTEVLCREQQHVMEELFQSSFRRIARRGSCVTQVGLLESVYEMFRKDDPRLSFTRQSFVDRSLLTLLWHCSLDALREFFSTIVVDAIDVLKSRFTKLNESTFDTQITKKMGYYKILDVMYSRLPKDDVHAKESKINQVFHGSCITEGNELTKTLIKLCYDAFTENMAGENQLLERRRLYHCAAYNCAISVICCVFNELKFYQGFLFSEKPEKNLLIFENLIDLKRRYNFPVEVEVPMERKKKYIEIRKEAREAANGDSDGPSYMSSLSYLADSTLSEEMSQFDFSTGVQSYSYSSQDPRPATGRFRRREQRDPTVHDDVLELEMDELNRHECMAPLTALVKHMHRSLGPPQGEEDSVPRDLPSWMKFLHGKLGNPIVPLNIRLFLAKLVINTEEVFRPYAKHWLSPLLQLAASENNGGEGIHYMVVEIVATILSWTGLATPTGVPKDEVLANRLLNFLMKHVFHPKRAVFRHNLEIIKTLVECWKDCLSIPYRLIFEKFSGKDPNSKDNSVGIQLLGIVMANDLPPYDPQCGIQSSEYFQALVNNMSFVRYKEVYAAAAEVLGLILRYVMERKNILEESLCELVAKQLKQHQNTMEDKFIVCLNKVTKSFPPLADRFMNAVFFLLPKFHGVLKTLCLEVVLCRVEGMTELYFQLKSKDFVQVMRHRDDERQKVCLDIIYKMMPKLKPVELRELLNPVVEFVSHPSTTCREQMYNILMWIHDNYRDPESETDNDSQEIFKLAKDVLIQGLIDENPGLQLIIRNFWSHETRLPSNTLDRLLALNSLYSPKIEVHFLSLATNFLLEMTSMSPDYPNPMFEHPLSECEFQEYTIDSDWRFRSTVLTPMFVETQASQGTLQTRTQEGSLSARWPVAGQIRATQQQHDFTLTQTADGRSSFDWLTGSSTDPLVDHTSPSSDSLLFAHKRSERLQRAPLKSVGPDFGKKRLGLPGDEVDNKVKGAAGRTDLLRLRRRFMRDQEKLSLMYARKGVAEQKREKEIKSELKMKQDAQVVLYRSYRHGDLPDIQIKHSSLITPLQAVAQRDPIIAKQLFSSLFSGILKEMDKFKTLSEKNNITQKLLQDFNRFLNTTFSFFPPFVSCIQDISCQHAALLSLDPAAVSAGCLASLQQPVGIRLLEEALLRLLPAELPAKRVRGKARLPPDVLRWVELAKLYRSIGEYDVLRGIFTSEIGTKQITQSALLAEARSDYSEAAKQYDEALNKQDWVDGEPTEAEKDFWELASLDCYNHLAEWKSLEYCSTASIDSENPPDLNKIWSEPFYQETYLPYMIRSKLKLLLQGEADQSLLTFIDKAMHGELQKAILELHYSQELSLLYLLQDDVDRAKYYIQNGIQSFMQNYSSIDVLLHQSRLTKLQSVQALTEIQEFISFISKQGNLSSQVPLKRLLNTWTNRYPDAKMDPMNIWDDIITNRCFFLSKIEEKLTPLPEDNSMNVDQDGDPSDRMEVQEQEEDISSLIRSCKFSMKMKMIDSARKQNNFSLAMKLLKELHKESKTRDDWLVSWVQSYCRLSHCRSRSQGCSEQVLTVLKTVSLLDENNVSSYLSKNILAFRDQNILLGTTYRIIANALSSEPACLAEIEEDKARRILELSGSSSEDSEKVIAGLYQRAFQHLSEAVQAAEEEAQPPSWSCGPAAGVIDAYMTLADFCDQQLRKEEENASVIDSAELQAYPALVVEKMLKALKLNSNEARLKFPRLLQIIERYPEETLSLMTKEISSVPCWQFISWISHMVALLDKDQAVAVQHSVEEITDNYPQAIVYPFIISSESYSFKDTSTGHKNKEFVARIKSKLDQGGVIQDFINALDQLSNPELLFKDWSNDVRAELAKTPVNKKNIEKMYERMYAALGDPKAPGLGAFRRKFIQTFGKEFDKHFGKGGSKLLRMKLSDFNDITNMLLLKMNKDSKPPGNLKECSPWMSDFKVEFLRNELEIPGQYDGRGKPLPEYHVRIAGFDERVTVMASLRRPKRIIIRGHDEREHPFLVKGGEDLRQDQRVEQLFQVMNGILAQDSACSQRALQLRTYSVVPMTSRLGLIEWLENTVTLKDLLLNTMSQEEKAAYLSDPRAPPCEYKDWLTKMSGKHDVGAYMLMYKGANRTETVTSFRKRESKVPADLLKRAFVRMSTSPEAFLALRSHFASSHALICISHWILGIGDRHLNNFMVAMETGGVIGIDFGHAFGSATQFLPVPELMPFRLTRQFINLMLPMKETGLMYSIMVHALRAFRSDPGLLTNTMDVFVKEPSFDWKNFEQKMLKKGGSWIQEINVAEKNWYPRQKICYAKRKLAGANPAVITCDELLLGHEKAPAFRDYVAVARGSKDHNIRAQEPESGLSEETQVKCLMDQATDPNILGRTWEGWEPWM
Compound,inhibition of growth at 10 µM [2] [%],inhibition of growth at 10 µM [3] [%],inhibition of growth at 10 µM [4] [%],inhibition of growth at 10 µM [5] [%],inhibition of growth at 10 µM [6] [%],inhibition of growth at 10 µM [8] [%],inhibition of growth at 10 µM [9] [%],inhibition of growth at 10 µM [10] [%],inhibition of growth at 10 µM [11] [%],inhibition of growth at 10 µM [12] [%],inhibition of growth at 10 µM [13] [%],inhibition of growth at 10 µM [14] [%],inhibition of growth at 10 µM [15] [%],inhibition of growth at 10 µM [16] [%],inhibition of growth at 10 µM [17] [%],inhibition of growth at 10 µM [18] [%],inhibition of growth at 10 µM [19] [%],inhibition of growth at 10 µM [20] [%],inhibition of growth at 10 µM [21] [%],inhibition of growth at 10 µM [22] [%],also measured
O=c1nc(N2CCOCC2)oc2c(-c3cccc4ccccc34)cccc12,6.4,3.86,27.1,18.9,19.2,33.4,9.24,-10,6.69,19.4,10.8,15,8.18,14.2,-1.44,-0.37,5.64,24.6,14.2,10.8,IC50 [1]: 20.3 µM; inhibition of growth at 10 µM [7]: 39.9%; inhibition of growth at 10 µM [23]: 16.3%; inhibition of growth at 10 µM [24]: 25.6%; inhibition of growth at 10 µM [25]: 38.9%; inhibition of growth at 10 µM [26]: 2.34%; inhibition of growth at 10 µM [27]: 10.2%; inhibition of growth at 10 µM [28]: 6.52%
O=c1nc(N2CCOCC2)oc2ccc(-c3cccc4c3sc3ccccc34)cc12,-10.4,3.98,19.5,5.25,4.6,11.7,-0.24,-1.46,29.8,-3.32,0.5,0.05,4.68,6.66,1.87,1.3,4.76,-5.28,-11.1,0.51,inhibition of growth at 10 µM [7]: 41.6%; inhibition of growth at 10 µM [23]: 2.44%; inhibition of growth at 10 µM [24]: 5.42%; inhibition of growth at 10 µM [25]: -5.78%; inhibition of growth at 10 µM [26]: -3.21%; inhibition of growth at 10 µM [27]: 21%; inhibition of growth at 10 µM [28]: 12.8%
O=c1nc(N2CCOCC2)oc2c(-c3cccc4c3sc3ccccc34)cccc12,11.5,19.7,50.9,28.3,26.8,38.6,18.3,4.79,13.4,15.2,11,15.1,18.5,17.8,4.77,9.49,-2.77,15,13.7,18.8,IC50 [1]: 0.034 µM; inhibition of growth at 10 µM [7]: 53.8%; inhibition of growth at 10 µM [23]: 19.2%; inhibition of growth at 10 µM [24]: 27.7%; inhibition of growth at 10 µM [25]: 38.4%; inhibition of growth at 10 µM [26]: 5.8%; inhibition of growth at 10 µM [27]: 30.5%; inhibition of growth at 10 µM [28]: 29.5%
NC(=O)c1ccc(-c2cccc3c(=O)nc(N4CCOCC4)oc23)cc1,2.5,-4.18,8.01,2.66,4.92,17.4,7.01,-5.06,-2.19,6.21,6.07,-1.74,0.88,2.31,-6.9,-2.17,-3.25,-3.1,0.57,3.19,IC50 [1]: 8.81 µM; inhibition of growth at 10 µM [23]: 2.66%; inhibition of growth at 10 µM [24]: -0.31%; inhibition of growth at 10 µM [25]: -4.38%; inhibition of growth at 10 µM [26]: -3.19%; inhibition of growth at 10 µM [27]: 9.68%; inhibition of growth at 10 µM [28]: 8.08%
O=c1nc(N2CCOCC2)oc2c(-c3ccsc3)cccc12,4.04,3.35,21.9,16.3,15.3,21.9,16,-4.22,6.07,13.1,17.1,-6.9,-3.77,8.75,3.77,-2.53,8.4,7.97,11.8,10.8,IC50 [1]: 9.8 µM; inhibition of growth at 10 µM [7]: 40.7%; inhibition of growth at 10 µM [23]: 13.3%; inhibition of growth at 10 µM [24]: 11.9%; inhibition of growth at 10 µM [25]: 14.4%; inhibition of growth at 10 µM [26]: 0.16%; inhibition of growth at 10 µM [27]: 22.3%; inhibition of growth at 10 µM [28]: 6.78%
